{"source": "patent US6413980B1", "about": "“Nitrogen containing heterobicycles as factor Xa inhibitors” (Bristol-Myers Squibb Pharma Company, priority 1998, dated 2002)", "note": "Where a name gives a salt, the structure may show the parent alone."}
{"molecule": "Cc1nn(-c2cccc(CN)c2)c2c1CCN(c1ccc(-c3ccccc3CN3CC[C@H](O)C3)cc1)C2", "note": "(as salt: trifluoroacetic acid salt) [Example 100, 1-[3-Aminomethylphenyl]-3-methyl-6-[(2′-N-((3-(S)-hydroxy)pyrrolidinyl)methyl-[1,1′]-biphen-4-yl)]-1,4,5,6-tetrahydro-7H-pyrazolo-[3,4-c]-pyridin-7-one bis-trifluoroacetic acid salt]", "values": [{"measurement": "melting point", "value": 79.2, "unit": "°C"}]}
